{"source": "patent US8440619B2", "about": "“Utilization of hypertension/hypercardia-preventing effect of D-allose” (National University Corporation Kagawa University, priority 2005, dated 2013)", "key": {"[1]": {"system": "salt-sensitive Dahl rats with the onset of hypertension (DS)", "experiment": "Blood pressure by the tail-cuff method in salt-loaded salt-sensitive Dahl rats", "assay_type": "in vivo, rat", "conditions": "4% salt diet, 2 g daily/kg body weight orally, in 4 weeks", "from_the_text": "(§1) Salt-sensitive male Dahl rats of age 7 weeks and with the onset of hypertension (DS) and salt-insensitive male Dahl rats of the same age (DR) were used. The DS rats were fed with a 0.5% salt diet or a 4% salt diet (Oriental Yeast Co., Ltd.) for 4 weeks (individually referred to as 0.5% salt diet group and 4% salt diet group). During the period, D-allose or D-glucose was orally given to the 4% salt diet group at 2 g daily/kg body weight (D-allose group or D-glucose group). The DR rats were fed with the 0.5% salt diet group and used as a normal control group. Blood pressure was measured by the tail-cuff method over time, while before salt loading and on the completion of salt loading, urine was collected for one day. On the last day of the observation period, the thoracic aorta was resected. A part thereof was used to quantify the amount of generated active oxygen in the aorta by the lucigenin method, while another part thereof was used to compare the amount of generated active oxygen between the groups by the dihydroxyethidium (DHE) fluorescence method. So as to assay the expression level of the messenger RNA of the NADPH oxidase involved in the increase of tissue oxidative stress (J Hypertens. 2004; 22:2161-2168), further, the renal cortex and the thoracic aorta were partially stored at −80° C."}, "[2]": {"experiment": "Body weight, organ weight and feed intake in DS rats", "assay_type": "in vivo, rat", "conditions": "4% salt diet, 2 g daily/kg orally, after 4-week feeding", "from_the_text": "as §1"}, "[3]": {"experiment": "Urine generation, Na and protein excretion in urine in DS rats", "assay_type": "in vivo, rat", "from_the_text": "as §1"}, "[4]": {"system": "active oxygen in rat thoracic aorta", "experiment": "Generated active oxygen in thoracic aorta, lucigenin method", "assay_type": "in vivo", "conditions": "DS rats, 4% salt diet, 2 g daily/kg orally, 4 weeks", "from_the_text": "as §1, with “C. […] Then, the luminescence was counted with a luminescence reader (BLR-301; Aloka).” for “C.”"}, "[5]": {"system": "active oxygen in rat thoracic aorta", "experiment": "Generated active oxygen in thoracic aorta, DHE fluorescence method", "assay_type": "in vivo", "conditions": "DS rats, 4% salt diet, 2 g daily/kg orally, 4 weeks", "from_the_text": "as §1, with “[…] A 10-μm ring slice piece was prepared from the embedded aorta with a cryostat,” for “So as”, “observe” for “assay”, “intra-tissue localization of ethidium generated from the specific reaction between active oxygen and DHE, along with the intensity” for “expression level”, “luminescence, with a co-focus microscope (Bio-Rad).” for “messenger RNA of the NADPH oxidase involved in the increase of tissue oxidative stress (J Hypertens. 2004; 22:2161-2168), further, the renal cortex and the thoracic aorta were partially stored at −80° C.”"}, "p22phox messenger RNA": {"system": "p22phox messenger RNA", "experiment": "Messenger RNA of NADPH oxidase-composing factor p22phox", "assay_type": "in vivo, rat", "conditions": "DS rats, 4% salt diet, 4 weeks, DR rats = 1.00", "from_the_text": "as §1, with “C. The levels of the messenger RNAs of p22phox and Nox analogs (Nox-1, gp91phox, Nox-4) as the NADPH oxidase-composing factors were assayed and compared in between thoracic aorta and renal cortex.” for “C.”"}, "gp91phox messenger RNA": {"system": "gp91phox messenger RNA", "experiment": "Messenger RNA of NADPH oxidase-composing factor gp91phox", "assay_type": "in vivo, rat", "conditions": "DS rats, 4% salt diet, 4 weeks, DR rats = 1.00", "from_the_text": "as §1, with “C. The levels of the messenger RNAs of p22phox and Nox analogs (Nox-1, gp91phox, Nox-4) as the NADPH oxidase-composing factors were assayed and compared in between thoracic aorta and renal cortex.” for “C.”"}, "Nox-1 messenger RNA": {"system": "Nox-1 messenger RNA", "experiment": "Messenger RNA of NADPH oxidase-composing factor Nox1", "assay_type": "in vivo, rat", "conditions": "DS rats, 4% salt diet, 4 weeks, DR rats = 1.00", "from_the_text": "as §1, with “C. The levels of the messenger RNAs of p22phox and Nox analogs (Nox-1, gp91phox, Nox-4) as the NADPH oxidase-composing factors were assayed and compared in between thoracic aorta and renal cortex.” for “C.”"}, "Nox-4 messenger RNA": {"system": "Nox-4 messenger RNA", "experiment": "Messenger RNA of NADPH oxidase-composing factor Nox4", "assay_type": "in vivo, rat", "conditions": "DS rats, 4% salt diet, 4 weeks, DR rats = 1.00", "from_the_text": "as §1, with “C. The levels of the messenger RNAs of p22phox and Nox analogs (Nox-1, gp91phox, Nox-4) as the NADPH oxidase-composing factors were assayed and compared in between thoracic aorta and renal cortex.” for “C.”"}, "[6]": {"system": "spontaneously hypertensive rats (SHR)", "experiment": "Systolic blood pressure by the tail-cuff method in spontaneously hypertensive rats", "assay_type": "in vivo, rat", "conditions": "2 g daily/kg orally, 4 weeks", "from_the_text": "(§2) Male spontaneously hypertensive rats of age 8 weeks (SHR) and male Wister KYOTO rats (WKY) of the same age were used. SHR was fed with a 0.5% salt diet or a 8% salt diet (Oriental Yeast Co., Ltd.) for 4 weeks (individually referred to as the 0.5% salt diet group and the 8% salt diet group). Additionally, D-allose or D-glucose was orally given to the 0.5% salt diet group and the 8% salt diet group, at 2 g daily/kg body weight (D-allose group or D-glucose group) during the period. WKY was fed with the 0.5% salt diet and used as a normal control group. Systolic blood pressure was measured by the tail-cuff method over time."}, "[7]": {"experiment": "Body weight, heart weight and kidney weight in SHR", "assay_type": "in vivo, rat", "conditions": "2 g daily/kg orally, 4 weeks", "from_the_text": "as §2"}, "[8]": {"conditions": "4% salt diet, 2 g daily/kg orally, after 4-week feeding"}}}
{"smiles": "O=C[C@H](O)[C@H](O)[C@H](O)[C@H](O)CO", "note": "[D-allose]", "values": [{"measurement": "diastolic pressure", "setting": "[1]", "result": "102±4", "unit": "mmHg"}, {"measurement": "systolic pressure", "setting": "[1]", "result": "135±7", "unit": "mmHg"}, {"measurement": "Heart weight", "setting": "[2]", "result": "994 ± 28", "unit": "mg"}, {"measurement": "Heart/body weight ratio", "setting": "[2]", "result": "2.88 ± 0.07 ×10^−3"}, {"measurement": "Kidney weight", "setting": "[2]", "result": "1389 ± 25", "unit": "mg"}, {"measurement": "Kidney/body weight ratio", "setting": "[2]", "result": "4.03 ± 0.03 ×10^−3"}, {"measurement": "Protein excretion in urine", "setting": "[3]; [8]", "result": "31.3 ± 11.8", "unit": "mg/day"}, {"measurement": "Protein excretion in urine", "setting": "[3]; before salt loading (baseline)", "result": "9.5 ± 1.2", "unit": "mg/day"}, {"measurement": "active oxygen generation in thoracic aorta (lucigenin method)", "setting": "[4]", "result": "suppressed to the level as observed in the 0.5% salt diet group or the DR normal control group"}, {"measurement": "signal accumulation in the aorta media nucleus on DHE fluorescence images", "setting": "[5]", "result": "suppressed"}, {"measurement": "p22phox messenger RNA level", "setting": "p22phox messenger RNA; Aorta", "result": "0.83 ± 0.21"}, {"measurement": "p22phox messenger RNA level", "setting": "p22phox messenger RNA; Renal cortex", "result": "1.18 ± 0.20"}, {"measurement": "gp91phox messenger RNA level", "setting": "gp91phox messenger RNA; Aorta", "result": "1.34 ± 0.27"}, {"measurement": "gp91phox messenger RNA level", "setting": "gp91phox messenger RNA; Renal cortex", "result": "0.97 ± 0.15"}, {"measurement": "Nox1 messenger RNA level", "setting": "Nox-1 messenger RNA; Aorta", "result": "0.74 ± 0.22"}, {"measurement": "Nox1 messenger RNA level", "setting": "Nox-1 messenger RNA; Renal cortex", "result": "0.88 ± 0.11"}, {"measurement": "Nox4 messenger RNA level", "setting": "Nox-4 messenger RNA; Aorta", "result": "1.36 ± 0.10"}, {"measurement": "Nox4 messenger RNA level", "setting": "Nox-4 messenger RNA; Renal cortex", "result": "1.32 ± 0.22"}, {"measurement": "systolic blood pressure", "setting": "[6]; 0.5% salt diet", "result": "180±5", "unit": "mmHg"}, {"measurement": "systolic blood pressure", "setting": "[6]; 8% salt diet", "result": "222±8", "unit": "mmHg"}, {"measurement": "Heart weight", "setting": "[7]; 0.5% salt diet", "result": "1042 ± 23", "unit": "mg"}, {"measurement": "Heart/body weight ratio", "setting": "[7]; 0.5% salt diet", "result": "3.56 ± 0.05 ×10^−3"}, {"measurement": "Kidney weight", "setting": "[7]; 0.5% salt diet", "result": "1212 ± 34", "unit": "mg"}, {"measurement": "Kidney/body weight ratio", "setting": "[7]; 0.5% salt diet", "result": "4.15 ± 0.08 ×10^−3"}, {"measurement": "Heart weight", "setting": "[7]; 8% salt diet", "result": "1337 ± 50", "unit": "mg"}, {"measurement": "Heart/body weight ratio", "setting": "[7]; 8% salt diet", "result": "4.40 ± 0.06 ×10^−3"}, {"measurement": "Kidney weight", "setting": "[7]; 8% salt diet", "result": "1387 ± 61", "unit": "mg"}, {"measurement": "Kidney/body weight ratio", "setting": "[7]; 8% salt diet", "result": "4.57 ± 0.17 ×10^−3"}]}
{"smiles": "O=C[C@H](O)[C@@H](O)[C@H](O)[C@H](O)CO", "note": "[D-glucose]", "values": [{"measurement": "diastolic pressure", "setting": "[1]", "result": "125±6", "unit": "mmHg"}, {"measurement": "systolic pressure", "setting": "[1]", "result": "162±5", "unit": "mmHg"}, {"measurement": "Heart weight", "setting": "[2]", "result": "1066 ± 35", "unit": "mg"}, {"measurement": "Heart/body weight ratio", "setting": "[2]", "result": "3.00 ± 0.08 ×10^−3"}, {"measurement": "Kidney weight", "setting": "[2]", "result": "1370 ± 36", "unit": "mg"}, {"measurement": "Kidney/body weight ratio", "setting": "[2]", "result": "3.85 ± 0.07 ×10^−3"}, {"measurement": "Protein excretion in urine", "setting": "[3]; [8]", "result": "85.3 ± 20.5", "unit": "mg/day"}, {"measurement": "Protein excretion in urine", "setting": "[3]; before salt loading (baseline)", "result": "13.1 ± 3.2", "unit": "mg/day"}, {"measurement": "active oxygen generation in thoracic aorta (lucigenin method)", "setting": "[4]", "result": "no such suppressive effect was observed"}, {"measurement": "signal accumulation in the aorta media nucleus on DHE fluorescence images", "setting": "[5]", "result": "never changed"}, {"measurement": "p22phox messenger RNA level", "setting": "p22phox messenger RNA; Aorta", "result": "1.14 ± 0.32"}, {"measurement": "p22phox messenger RNA level", "setting": "p22phox messenger RNA; Renal cortex", "result": "1.19 ± 0.06"}, {"measurement": "gp91phox messenger RNA level", "setting": "gp91phox messenger RNA; Aorta", "result": "1.90 ± 0.19"}, {"measurement": "gp91phox messenger RNA level", "setting": "gp91phox messenger RNA; Renal cortex", "result": "1.20 ± 0.28"}, {"measurement": "Nox1 messenger RNA level", "setting": "Nox-1 messenger RNA; Aorta", "result": "0.85 ± 0.24"}, {"measurement": "Nox1 messenger RNA level", "setting": "Nox-1 messenger RNA; Renal cortex", "result": "1.03 ± 0.24"}, {"measurement": "Nox4 messenger RNA level", "setting": "Nox-4 messenger RNA; Aorta", "result": "1.75 ± 0.24"}, {"measurement": "Nox4 messenger RNA level", "setting": "Nox-4 messenger RNA; Renal cortex", "result": "1.38 ± 0.16"}, {"measurement": "systolic blood pressure", "setting": "[6]; 0.5% salt diet", "result": "201±7", "unit": "mmHg"}, {"measurement": "systolic blood pressure", "setting": "[6]; 8% salt diet", "result": "255±5", "unit": "mmHg"}, {"measurement": "Heart weight", "setting": "[7]; 0.5% salt diet", "result": "1180 ± 35", "unit": "mg"}, {"measurement": "Heart/body weight ratio", "setting": "[7]; 0.5% salt diet", "result": "3.92 ± 0.15 ×10^−3"}, {"measurement": "Kidney weight", "setting": "[7]; 0.5% salt diet", "result": "1206 ± 32", "unit": "mg"}, {"measurement": "Kidney/body weight ratio", "setting": "[7]; 0.5% salt diet", "result": "3.02 ± 0.02 ×10^−3"}, {"measurement": "Heart weight", "setting": "[7]; 8% salt diet", "result": "1437 ± 38", "unit": "mg"}, {"measurement": "Heart/body weight ratio", "setting": "[7]; 8% salt diet", "result": "4.70 ± 0.13 ×10^−3"}, {"measurement": "Kidney weight", "setting": "[7]; 8% salt diet", "result": "1342 ± 41", "unit": "mg"}, {"measurement": "Kidney/body weight ratio", "setting": "[7]; 8% salt diet", "result": "4.40 ± 0.19 ×10^−3"}]}
